Data taken from US20150140002A1, “USE OF A PCSK9 INHIBITOR TO TREAT […]” (Sanofi, priority 2013, published 2015).
Marks after values point to notes of the source that are not given here.

Columns and labels:
[1] = test system: anti-mAb316P antibodies; experiment: Example 2: anti-mAb316P antibody (ADA) bridging immunoassay and neutralizing antibody assay; assay type: in vivo, human; conditions: in vivo
Experimental: Other endpoints Anti-MAb316P Antibody Assessments: Anti-mAb316P antibodies included the antibody status (positive/negative) and antibody titers.
Sampling time: Serum samples for anti-mAb316P antibody determination were drawn periodically throughout the study. The first scheduled sample at randomization visit was obtained before IMP injection (predose).
Anti-mAb316P antibody samples were analyzed using a validated non-quantitative, titer-based bridging immunoassay. It involved an initial screen, a confirmation assay based on drug specificity, and a measurement of the titer of anti-MAb316P antibodies in the sample. The lower limit of detection was approximately 1.5 ng/mL.
Samples that were positive in the ADA assay were assessed for neutralizing antibodies using a validated, non-quantitative, competitive ligand binding assay. The lower limit of detection based on a monoclonal positive control neutralizing antibody is 390 ng/mL.

[2] = test system: patients with primary hypercholesterolemia (heFH and non-FH) who are intolerant to statins; experiment: Example 3: randomized double-blind trial mAb316P versus ezetimibe (atorvastatin calibrator arm), lipid parameters; assay type: in vivo, human
Text: The present study was a randomized, double-blind, double-dummy, active-controlled, parallel-group, multi-national, multi-center study in patients with primary hypercholesterolemia and moderate, high, or very high CV risk who are intolerant to statins. The study design is illustrated in FIG. 7.
Primary Efficacy Endpoint: The primary efficacy endpoint was the percent change in calculated LDL-C from baseline to week 24, which was defined as: 100× (calculated LDL-C value at week 24—calculated LDL-C value at baseline)/calculated LDL-C value at baseline. A baseline LDL-C value was needed for each patient as the baseline calculated LDL-C value was the last LDL-C level obtained before the first double-blind study drug injection.
Total-C, HDL-C, TG, ApoB, ApoA-1, and Lp(a) were directly measured by a central laboratory as per a predetermined schedule. Low-density lipoprotein cholesterol was calculated using the Friedewald formula at all visits (except week −15 and the follow-up visit). If TG values exceeded 400 mg/dL (4.52 mmol/L), then the central lab measured (via the beta quantification method) the LDL-C rather than calculate it. Non-HDL-C was calculated by subtracting HDL-C from the total-C. Ratio ApoB/ApoA-1 was calculated.
The double-blind period efficacy endpoint analysis results in the order of statistical hierarchical testing as specified in the above protocol (with multiple testing controlled at the 0.05 significance level) is set forth in Table 12. Primary and key secondary efficacy analyses were performed comparing mAb316P-treated patients to ezetimibe-treated patients. For clarification, the ITT analysis is defined for patients in the ITT population and includes all endpoint assessments in an analysis window, regardless of study treatment dosing status (i.e. includes post-treatment assessments). The on-treatment analysis is defined for patients in the mITT population and includes all endpoint assessments from the first double-blind study drug (capsule or injection, whichever comes first) up to 21 days after the last double-blind study drug injection, or 3 days after the last capsule intake, whichever came first (i.e. includes assessments in the efficacy treatment period). Note: A result is statistically significant if the p-value is s 0.05, in the order of the hierarchical testing.

[3] = test system: patients with genotype-confirmed hoFH; conditions: ezetimibe 10 mg/day added to maximal dose of statins; cited from earlier work
[4] = WK24, ITT analysis, listed as EZE
[5] = WK24, ITT analysis, listed as Ezetimibe

SMILES: O=C1[C@H](CC[C@H](O)c2ccc(F)cc2)[C@@H](c2ccc(O)cc2)N1c1ccc(F)cc1 [ezetimibe, reference compound]
- patients with treatment emergent anti-drug antibodies [1]: not observed
- Apo A-1 LS mean percent change from baseline ([2]; WK12, ITT analysis): LS mean: 3.9%
- Apo B LS mean percent change from baseline ([2]; WK12, ITT analysis): LS mean: −11.6%
- Fasting Triglycerides LS mean percent change from baseline ([2]; WK12, ITT analysis): LS mean: −9.4%
- HDL-C LS mean percent change from baseline ([2]; WK12, ITT analysis): LS mean: 7.6%
- LDL-C LS mean percent change from baseline ([2]; WK12, ITT analysis): LS mean: −15.6%
- Lp(a) LS mean percent change from baseline ([2]; WK12, ITT analysis): LS mean: −4.5%
- Non-HDL-C LS mean percent change from baseline ([2]; WK12, ITT analysis): LS mean: −15.8%
- Total Cholesterol LS mean percent change from baseline ([2]; WK12, ITT analysis): LS mean: −11.6%
- LDL-C LS mean percent change from baseline ([2]; WK12, on-treatment analysis): LS mean: −18.0%
- Apo A-1 LS mean percent change from baseline ([2]; WK24, ITT analysis): LS mean: 2.9%
- Fasting Triglycerides LS mean percent change from baseline ([2]; WK24, ITT analysis): LS mean: −3.5%
- HDL-C LS mean percent change from baseline ([2]; WK24, ITT analysis): LS mean: 6.8%
- LDL-C LS mean percent change from baseline ([2]; WK24, ITT analysis): −14.6%
- Proportion with LDL-C <70 mg/dL ([2]; WK24, ITT analysis): Proportion = 0.8%
- Proportion with Very High CV LDL-C <70 mg/dL OR Moderate/High CV LDL-C <100 mg/dL ([2]; WK24, ITT analysis): Proportion = 4.1%
- Total Cholesterol LS mean percent change from baseline ([2]; WK24, ITT analysis): LS mean: −10.9%
- Apo B LS mean percent change from baseline [2, 4]: −11.2* %
- LDL-C LS mean percent change from baseline [2, 4]: -14.6%
- Lp(a) LS mean percent change from baseline [2, 4]: −7.3* %
- Non-HDL-C LS mean percent change from baseline [2, 4]: −14.6* %
- Apo B LS mean percent change from baseline [2, 5]: LS mean: −11.2%
- LDL-C LS mean percent change from baseline [2, 5]: LS mean: −14.6%
- Lp(a) LS mean percent change from baseline [2, 5]: LS mean: −7.3%
- Non-HDL-C LS mean percent change from baseline [2, 5]: LS mean: −14.6%
- Apo B LS mean percent change from baseline ([2]; WK24, on-treatment analysis): LS mean: −14.4%
- LDL-C LS mean percent change from baseline ([2]; WK24, on-treatment analysis): LS mean: −17.1%
- Non-HDL-C LS mean percent change from baseline ([2]; WK24, on-treatment analysis): LS mean: −17.1%
- Proportion with LDL-C <70 mg/dL ([2]; WK24, on-treatment analysis): Proportion = 0.8%
- Proportion with Very High CV LDL-C <70 mg/dL OR Moderate/High CV LDL-C <100 mg/dL ([2]; WK24, on-treatment analysis): Proportion = 4.2%
- patients who reached LDL-C goal at week 24 ([2]; goal <70 mg/dL very high risk, <100 mg/dL moderate and high risk): 4.4%
- LS mean LDL-C value at week 24 ([2]; in vivo): 159.9 mg/dL
- change in LDL-C level from baseline ([2]; week 24): -33 mg/dL
- total reduction of LDL-C levels [3]: 27%
